Laboratory results: the supplement of paper PMC11061612

Columns and labels:
[1] = tested on: L-363 (Plasma Cell Myeloma); test: combination Emax (second highest fraction inhibited in the dose matrix, 72 h); higher = more inhibition; extreme values may be limits of the assay
Summary of the method: (§1)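 Cell lines grown in DMEM/F12 or RPMI with 10% FBS were plated in 1536-well plates and held 24 hours at 37°C, 5% CO2 before 72 hours of exposure to two-drug dose matrices, with DMSO typically at 0.2%. CellTiter-Glo 2.0 luminescence gave viability, which was converted to inhibition. Vehicle wells were set to 0 and blank wells to 1. Combination Emax is the second-highest inhibition in the matrix, and Bliss excess is the observed combination effect minus the expected EA + EB − EA·EB, where EA and EB are the single-agent effects.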

[2] = tested on: GRANTA-519 (B-Cell Non-Hodgkin's Lymphoma); test: as above
Summary of the method: as §1

[3] = tested on: SUP-HD1 (Hodgkin's Lymphoma); test: as above
Summary of the method: as §1

[4] = tested on: IGROV-1 (Ovarian Carcinoma); test: as above
Summary of the method: as §1

[5] = tested on: HT-3 (Cervical Carcinoma); test: as above
Summary of the method: as §1

[6] = tested on: GCIY (Gastric Carcinoma); test: as above
Summary of the method: as §1

[7] = tested on: NCI-H1435 (Non-Small Cell Lung Carcinoma); test: as above
Summary of the method: as §1

[8] = tested on: MDA-MB-175-VII (Breast Carcinoma); test: as above
Summary of the method: as §1

[9] = tested on: NCI-H2170 (Squamous Cell Lung Carcinoma); test: as above
Summary of the method: as §1

[10] = tested on: KNS-62 (Squamous Cell Lung Carcinoma); test: as above
Summary of the method: as §1

[11] = tested on: HT-1197 (Bladder Carcinoma); test: as above
Summary of the method: as §1

[12] = tested on: MRK-nu-1 (Breast Carcinoma); test: as above
Summary of the method: as §1

[13] = tested on: OCI-M1 (Acute Myeloid Leukemia); test: Bliss excess, mean over the matrix (fraction); higher = more synergy
Summary of the method: as §1

[14] = tested on: NCI-H2452 (Mesothelioma); test: as above
Summary of the method: as §1

[15] = tested on: MG-63 (Osteosarcoma); test: as above
Summary of the method: as §1

[16] = tested on: NCI-H2023 (Non-Small Cell Lung Carcinoma); test: as above
Summary of the method: as §1

[17] = tested on: MDA-MB-175-VII (Breast Carcinoma); test: as above
Summary of the method: as §1

[18] = tested on: NTERA-2-cl-D1 (Other Solid Carcinomas); test: as above
Summary of the method: as §1

[19] = tested on: HT-144 (Melanoma); test: as above
Summary of the method: as §1

[20] = tested on: ATN-1 (T-Lymphoblastic Leukemia); test: as above
Summary of the method: as §1
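For Bliss excess, mean over the matrix in this document: after 72 h of two-drug dosing.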

| SMILES | combination Emax [1] | combination Emax [2] | combination Emax [3] | combination Emax [4] | combination Emax [5] | combination Emax [6] | combination Emax [7] | combination Emax [8] | combination Emax [9] | combination Emax [10] | combination Emax [11] | combination Emax [12] | Bliss excess [13] | Bliss excess [14] | Bliss excess [15] | Bliss excess [16] | Bliss excess [17] | Bliss excess [18] | Bliss excess [19] | Bliss excess [20] |
| --- | --- | --- | --- | --- | --- | --- | --- | --- | --- | --- | --- | --- | --- | --- | --- | --- | --- | --- | --- | --- |
| CC1(C)CCC(CN2CCN(c3ccc(C(=O)NS(=O)(=O)c4ccc(NCC5CCOCC5)c([N+](=O)[O-])c4)c(Oc4cnc5[nH]ccc5c4)c3)CC2)=C(c2ccc(Cl)cc2)C1 [Venetoclax] + Cc1cc2ncnn2cc1Nc1ncc2c(n1)n(C1CCOCC1)c(=O)n2C [AZD7648] (first compound max 1 µM, 7x7, partner max 10 µM) | 0.867 | 0.332 | 0.795 | 0.539 | 0.135 | 0.558 | 0.165 | 0.243 | 0.282 | 0.219 | 0.214 | 0.523 | -0.0153 | -0.0388 | -0.0405 | -0.0513 | -0.0444 | -0.0216 | -0.0798 | 0.0196 |
| COc1cccc(OCCCN)c1-c1cc(Nc2cnc(C#N)cn2)n[nH]1 [Prexasertib] + Cc1cc2ncnn2cc1Nc1ncc2c(n1)n(C1CCOCC1)c(=O)n2C [AZD7648] (first compound max 1 µM, 7x7, partner max 10 µM) | 0.985 | 0.852 | 0.89 | 0.76 | 0.388 | 0.879 | 0.336 | 0.367 | 0.88 | 0.601 | 0.517 | 0.803 | -0.0483 | -0.0623 | -0.0128 | -0.027 | -0.0328 | -0.0688 | -0.0061 | 0.0136 |
| NC1(C(=O)N[C@@H](CCO)c2ccc(Cl)cc2)CCN(c2ncnc3[nH]ccc23)CC1 [Capivasertib] + COc1nnc2ccc(N3CCC(c4ccc(OCCN5CCN(C)C(=O)[C@H]5C)cc4)CC3)nn12 [AZD5153] (first compound max 10 µM, 7x7, partner max 1 µM) | 0.879 | 0.317 | 0.857 | 0.804 | 0.308 | 0.735 | 0.248 | 0.571 | 0.594 | 0.809 | 0.759 | 0.587 | -0.0026 | -0.0192 | -0.0237 | 0.0221 | 0.0129 | -0.0097 | 0.0653 | -0.0444 |
| Cn1cnc2c(F)c(Nc3ccc(Br)cc3Cl)c(C(=O)NOCCO)cc21 [Selumetinib] + C=CCn1c(=O)c2cnc(Nc3ccc(N4CCN(C)CC4)cc3)nc2n1-c1cccc(C(C)(C)O)n1 [AZD1775] (first compound max 10 µM, partner max 1 µM) | 0.924 | 0.869 | 0.727 | 0.848 | 0.195 | 0.475 | 0.209 | 0.558 | 0.699 | 0.434 | 0.507 | 0.0295 | 0 | -0.0288 | -0.0327 | -0.0578 | -0.0005 | 0.0314 | -0.0127 | -0.0253 |
| Cn1cnc2c(F)c(Nc3ccc(Br)cc3Cl)c(C(=O)NOCCO)cc21 [Selumetinib] + CC(C)n1c(=O)n(C)c2cnc3cc(F)c(-c4ccc(OCCCN5CCCCC5)nc4)cc3c21 [AZD1390] (first compound max 10 µM, 7x7, partner max 0.3 µM) | 0.017 | 0.095 | 0.224 | 0.618 | 0.105 | 0.396 | 0.13 | 0.451 | 0.0988 | 0.439 | 0.152 | 0.35 | 0.0164 | -0.0732 | -0.0037 | -0.0292 | -0.0235 | 0.0052 | -0.0653 | -0.0318 |
| CC1(C)CCC(CN2CCN(c3ccc(C(=O)NS(=O)(=O)c4ccc(NCC5CCOCC5)c([N+](=O)[O-])c4)c(Oc4cnc5[nH]ccc5c4)c3)CC2)=C(c2ccc(Cl)cc2)C1 [Venetoclax] + C=CCn1c(=O)c2cnc(Nc3ccc(N4CCN(C)CC4)cc3)nc2n1-c1cccc(C(C)(C)O)n1 [AZD1775] (first compound max 1 µM, partner max 1 µM) | 1 | 1 | 0.921 | 0.819 | 0.191 | 0.824 | 0.35 | 0.444 | 0.652 | 0.544 | 0.487 | 0.294 | -0.0505 | 0.0036 | -0.0048 | 0.0053 | -0.0111 | -0.0202 | -0.0314 | 0.0707 |
| COc1cccc(OCCCN)c1-c1cc(Nc2cnc(C#N)cn2)n[nH]1 [Prexasertib] + CCc1c2c(nc3ccc(O)cc13)-c1cc3c(c(=O)n1C2)COC(=O)[C@]3(O)CC [SN-38] (first compound max 1 µM, 7x7, partner max 0.3 µM) | 1 | 1 | 0.954 | 0.863 | 0.933 | 0.929 | 0.481 | 0.547 | 0.956 | 0.874 | 0.543 | 0.84 | -0.0042 | 0.103 | -0.0315 | -0.0527 | -0.0027 | 0.0728 | -0.0236 | 0.0005 |
| CC1(C)CCC(CN2CCN(c3ccc(C(=O)NS(=O)(=O)c4ccc(NCC5CCOCC5)c([N+](=O)[O-])c4)c(Oc4cnc5[nH]ccc5c4)c3)CC2)=C(c2ccc(Cl)cc2)C1 [Venetoclax] + Cn1cnc2c(F)c(Nc3ccc(Br)cc3Cl)c(C(=O)NOCCO)cc21 [Selumetinib] (first compound max 1 µM, 7x7, partner max 3 µM) | 0.833 | 0.323 | 0.809 | 0.595 | 0.118 | 0.514 | 0.156 | 0.255 | 0.107 | 0.253 | 0.254 | 0.235 | -0.0203 | -0.0501 | -0.0292 | -0.0489 | -0.0556 | -0.0415 | -0.0616 | -0.0324 |
| COc1nnc2ccc(N3CCC(c4ccc(OCCN5CCN(C)C(=O)[C@H]5C)cc4)CC3)nn12 [AZD5153] + CC1(C)CCC(CN2CCN(c3ccc(C(=O)NS(=O)(=O)c4ccc(NCC5CCOCC5)c([N+](=O)[O-])c4)c(Oc4cnc5[nH]ccc5c4)c3)CC2)=C(c2ccc(Cl)cc2)C1 [Venetoclax] (first compound max 1 µM, 7x7, partner max 1 µM) | 0.528 | 0.69 | 0.955 | 0.669 | 0.278 | 0.505 | 0.169 | 0.475 | 0.484 | 0.519 | 0.656 | 0.468 | -0.062 | 0.0059 | -0.0509 | -0.0832 | 0.0346 | -0.0251 | -0.0488 | -0.0279 |
| Cn1cnc2c(F)c(Nc3ccc(Br)cc3Cl)c(C(=O)NOCCO)cc21 [Selumetinib] + C[C@@H]1COCCN1C2=NC(=NC(=C2)C3(CC3)[S@](=N)(=O)C)C4=C5C=CNC5=NC=C4 [AZD6738] (first compound max 10 µM, 7x7, partner max 10 µM) | 0.801 | 0.909 | 0.668 | 0.818 | 0.54 | 0.704 | 0.114 | 0.432 | 0.618 | 0.524 | 0.422 | 0.413 | 0.0217 | -0.0476 | 0.0342 | -0.0255 | 0.029 | -0.009 | -0.0011 | -0.024 |
| COc1cccc(OCCCN)c1-c1cc(Nc2cnc(C#N)cn2)n[nH]1 [Prexasertib] + CN(C)CCCOc1ccc(-c2ccc3ncc4c(c3c2)n(C2CCOCC2)c(=O)n4C)cn1 [AZD0156] (first compound max 1 µM, 7x7, partner max 1 µM) | 0.992 | 0.873 | 0.886 | 0.788 | 0.453 | 0.853 | 0.365 | 0.327 | 0.868 | 0.659 | 0.571 | 0.81 | -0.0504 | -0.0554 | 0.0072 | -0.0373 | -0.0173 | 0.0083 | -0.0135 | 0.0102 |
